This note sets out measurements from PubChem BioAssay (NCI).

SMILES strings stand for the structures. Several values for one entry are separate records, joined by “and”; a condition that tells them apart may be missing. Equal entries are not always repeated.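 Test compounds were applied to cells in 96-well plates for 48 hours at 5 doses. Here, GI50 denotes the concentration required for 50% inhibition of growth. TGI is the concentration that stops growth completely.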 A value given as a limit tells only on which side of the number the result lay.

Test systems include MOLT-4 leukemia; SW-620 colon; SNB-75 CNS; DU-145 prostate; A549 NSCLC; OVCAR-4 ovarian; UACC-257 melanoma; TK-10 renal; EKVX NSCLC; MDA-MB-435; HCT-15 colon; COLO 205 colon; MDA-MB-231 breast; SK-MEL-2 melanoma; HS 578T breast; MDA-N.
What all share (test): growth of human tumour cells (NCI), 48 h

For the compound `O=C1NCC2(CCN(CC3COc4ccccc4O3)CC2)N1c1ccccc1` (configuration not stated), the TGI in the test with MOLT-4 leukemia, in the test with SW-620 colon, in the test with SNB-75 CNS, in the test with DU-145 prostate, with A549 NSCLC and in the test on OVCAR-4 ovarian was above 100 µM each time. The TGI with UACC-257 melanoma, in the test on TK-10 renal, with EKVX NSCLC, with MDA-MB-435, in the test with HCT-15 colon and in the test with COLO 205 colon was above 100 µM in each case. For the same compound, the TGI in the test with MDA-MB-231 breast, in the test with SK-MEL-2 melanoma and in the test on HS 578T breast was above 100 µM throughout.

As to `COc1cc(CNc2ccc(C)cc2)cc(OC)c1OC`, the TGI in the test on MOLT-4 leukemia, in the test on SNB-75 CNS, in the test on A549 NSCLC, in the test on OVCAR-4 ovarian, in the test with UACC-257 melanoma and in the test with TK-10 renal was above 100 µM in each case. Moreover, the TGI is above 100 µM with EKVX NSCLC; 9.02 µM and > 37.2 µM in the test with HCT-15 colon; 0.385 µM and 1.11 µM with COLO 205 colon; above 100 µM in the test on SK-MEL-2 melanoma. In addition, the GI50 with SW-620 colon was 0.203 µM; in the test on TK-10 renal, 4.28 µM; with HCT-15 colon it was 0.1 µM and 0.275 µM.

For the compound `Cc1ccc(C(=O)c2[nH]c(NCc3ccccc3)c(C(=S)Nc3ccccc3)c2N)cc1`, the TGI in the test on MOLT-4 leukemia is 6.38 µM; in the test with SW-620 colon it was 5.19 µM; in the test with SNB-75 CNS, 16.6 µM; with DU-145 prostate, 27 µM; in the test with A549 NSCLC, 22.1 µM; in the test with OVCAR-4 ovarian, 12.5 µM. Further, the TGI with UACC-257 melanoma stood at 18.4 µM; in the test on TK-10 renal it was 23.3 µM; with EKVX NSCLC, 26.5 µM; in the test with MDA-MB-435 it was 10.2 µM; in the test with HCT-15 colon, 4.33 µM; in the test on COLO 205 colon, 18 µM. Also, the TGI in the test on MDA-MB-231 breast came to 19.6 µM; with SK-MEL-2 melanoma it was 22.8 µM; in the test on MDA-N, 12.3 µM.

As to `COC(=O)/C=C1/OC(c2ccccc2)=C(Br)C1=O`, the TGI is above 100 µM in the test on MOLT-4 leukemia; 36.7 µM with SW-620 colon; above 100 µM with SNB-75 CNS; above 100 µM in the test with DU-145 prostate; above 100 µM in the test with OVCAR-4 ovarian; above 100 µM with UACC-257 melanoma. Moreover, the TGI with TK-10 renal was above 100 µM; in the test with EKVX NSCLC, above 100 µM; with MDA-MB-435 it was above 100 µM; in the test with HCT-15 colon it was above 100 µM; with COLO 205 colon it was above 100 µM; with MDA-MB-231 breast, 66.3 µM. The compound further had a TGI in the test with MDA-N above 100 µM.

On to `CCCCCCCCC#CCCCCCCC(F)C(=O)O` (configuration not stated), for which the TGI in the test with MOLT-4 leukemia, with SW-620 colon, in the test with SNB-75 CNS, in the test with DU-145 prostate, in the test with A549 NSCLC and in the test on OVCAR-4 ovarian was above 100 µM in each case. Besides, the TGI with UACC-257 melanoma, with TK-10 renal, in the test on EKVX NSCLC, with MDA-MB-435, with HCT-15 colon and in the test on COLO 205 colon was above 100 µM throughout. The TGI with SK-MEL-2 melanoma and in the test on HS 578T breast was above 100 µM in each case.

Consider `COC(=O)/C=C1\C(=O)Nc2ccc(Br)cc21`, for which the TGI was found to be 4.01 µM in the test on MOLT-4 leukemia; 3.22 µM with SW-620 colon; 3.87 µM in the test on SNB-75 CNS; 4.38 µM in the test on DU-145 prostate; 12.3 µM with A549 NSCLC; 5.84 µM with OVCAR-4 ovarian. Also, the TGI in the test with UACC-257 melanoma was 3.07 µM; in the test on TK-10 renal, 3.09 µM; with EKVX NSCLC it was 4.49 µM; in the test on MDA-MB-435, 4.76 µM; with HCT-15 colon, 2.81 µM; in the test with COLO 205 colon, 3.45 µM. Moreover, the TGI in the test with MDA-MB-231 breast was 6.64 µM; in the test on SK-MEL-2 melanoma, 1.77 µM; with HS 578T breast it was above 34.4 µM.

`CC(=O)O[C@H]1[C@@H](N2CCCCC2)C[C@H]2[C@@H]3CC=C4C[C@@H](N5CCCC5)CC[C@]4(C)[C@H]3CC[C@@]21C`: the TGI in the test on MOLT-4 leukemia was above 100 µM; with SW-620 colon, above 100 µM; with SNB-75 CNS, above 100 µM; in the test on A549 NSCLC, above 100 µM; in the test on OVCAR-4 ovarian it was above 100 µM; in the test on UACC-257 melanoma it was 87.7 µM. Moreover, the TGI in the test with TK-10 renal, in the test with EKVX NSCLC, in the test on MDA-MB-435, in the test with HCT-15 colon, in the test with COLO 205 colon and in the test on MDA-MB-231 breast was above 100 µM in each case. Besides, the TGI with SK-MEL-2 melanoma and with HS 578T breast was above 100 µM throughout.

Regarding `c1ccc2c(c1)n1c(N3CCCC3)[n+]3ccccc3c1c1c3cccc[n+]3c(N3CCCC3)n21`, the TGI is above 100 µM in the test with MOLT-4 leukemia; above 100 µM in the test on SW-620 colon; 68.5 µM with SNB-75 CNS; above 100 µM in the test on DU-145 prostate; above 100 µM in the test on A549 NSCLC; above 100 µM in the test with OVCAR-4 ovarian. Further, the TGI was above 100 µM with UACC-257 melanoma; above 100 µM in the test with TK-10 renal; above 100 µM in the test on EKVX NSCLC; above 100 µM with MDA-MB-435; above 100 µM in the test with HCT-15 colon; 74.9 µM in the test with COLO 205 colon. Moreover, the TGI in the test with MDA-MB-231 breast, with SK-MEL-2 melanoma and in the test with HS 578T breast was above 100 µM throughout.

For the compound `CCOC(=O)/C(=C\n1c(=O)sc2ccccc21)C(=O)c1ccccc1`, the TGI in the test with MOLT-4 leukemia, in the test on SW-620 colon, with SNB-75 CNS, in the test on DU-145 prostate, with A549 NSCLC and in the test on OVCAR-4 ovarian was above 100 µM throughout. The TGI in the test on UACC-257 melanoma, in the test with EKVX NSCLC, with MDA-MB-435, in the test on HCT-15 colon, in the test on COLO 205 colon and in the test with MDA-MB-231 breast was above 100 µM each time. For the same compound, the TGI with SK-MEL-2 melanoma and in the test with HS 578T breast was above 100 µM each time.

Consider `CC[n+]1c(/C=C/c2cc(C(=O)OC)n3c2sc2ccccc23)sc2ccccc21`, for which the TGI in the test on MOLT-4 leukemia amounted to 33.9 µM; in the test on SNB-75 CNS, 32.5 µM; in the test on A549 NSCLC, 38.3 µM; with OVCAR-4 ovarian, 34.2 µM; in the test on UACC-257 melanoma, 33.1 µM; in the test on EKVX NSCLC it was 38.9 µM. Further, the TGI with HCT-15 colon turned out to be 34.9 µM; in the test on COLO 205 colon it was 65.8 µM; in the test on SK-MEL-2 melanoma it was 39 µM.
